Earlier results as cited in patent US20130302415A1, “Pharmaceutical Composition” (CIPLA Limited, priority 2010, published 2013).

Conditions: class II = low solubility, high permeability

Biopharmaceutical Classification System class: class II
SMILES: O=C1Nc2ccc(Cl)cc2[C@@](C#CC2CC2)(C(F)(F)F)O1 [Efavirenz, (S)-6-chloro-4-cyclopropylethynyl-4-trifluoromethyl-1,4-dihydro-2H-3,1-benzoxazin-2-one]
